How the values were obtained:
[1] = Changes in body weight of rats in CdCl2-induced hepatic toxicity study; format: in vivo, rat; conditions: male Wistar rats, n=8 per group; AEO 250 mg/kg 2 hours before saline or CdCl2 6.5 mg/kg i.p., daily for 7 days; mean ± SD
Protocol: (§1) To study the hepatic protective activity of Achillea millefolium essential oil (AEO) on CdCl2-induced hepatic toxicity, male Wistar rats (weighing, 180 g-200 g) were purchased from the Experimental Animal Research Centre, King Saud University, Riyadh, KSA. The animals were randomly divided into four groups (n=8 per group). For Group I (the Control group), the animals were pre-administered with 0.9% NaCl (physiological saline), 2 hours before the injection of 0.9% NaCl (physiological saline) i.p., daily for 7 days. For Group II (the CdCl2 group), the animals were pre-administered with 0.9% NaCl (physiological saline) 2 hours before injection of 6.5 mg/kg CdCl2 i.p. daily for 7 days. For Group III (the AEO group), the animals were pre-administered with 250 mg/kg AEO 2 hours before the injection of 0.9% NaCl (physiological saline) i.p. daily for 7 days. For Group IV (the AEO+CdCl2 group), the animals were pre-administered with 250 mg/kg AEO 2 hours before the injection of 6.5 mg/kg CdCl2 i.p. daily for 7 days. Twenty-four hours after the last treatment, the animals were killed and the liver was quickly removed and weighed.

[2] = Determination of Cd concentration in liver tissue; format: in vivo, rat
Protocol: as §1
Cd concentration was measured using conventional methods. Liver tissue was weighed and dried in an oven for 4 hours at 250° C. […] Cd concentrations were determined by spectrophotometry at […]. The Cd concentrations are expressed as μg/g of wet liver tissue.

[3] = system: CdCl2-induced hepatic toxicity; test: Liver function test (serum enzymes, ELISA kits); format: in vivo, rat; conditions: rats, Cd vs control group, AEO 250 mg/kg + CdCl2 vs CdCl2 group
Protocol: as §1
The activities of alanine transaminase (ALT), aspartate aminotransferase (AST), alkaline phosphatase (ALP), lactate dehydrogenase (LDH) enzymes and γ-glutamyltransferase1 (γGTT1) were determined using ELISA kits.

[4] = system: CdCl2-induced hepatic toxicity; test: Determination of hepatic oxidative stress markers; format: in vivo, rat; conditions: rats, CdCl2 vs control, AEO 250 mg/kg + CdCl2 vs CdCl2 group
Protocol: as §1
(§2) Parts of the frozen liver samples (50 mg) were homogenized in 1 ml ice-cold phosphate buffer saline containing a protease/phosphatase inhibitor cocktail. The homogenates were centrifuged at 10,000×g for 15 minutes at 4° C. and the supernatants were isolated to new tubes. The tubes were kept at −20° C. until further biochemical analysis.
Lipid peroxidation was assessed according to the amount of malondialdehyde (MDA). The activities of catalase, superoxide dismutase (SOD) glutathione peroxidase (GSH-Px) and glutathione reductase (GSH-R) were estimated using kits, according to manufacturer protocol.

Nrf2/HO-1/NQO1 = test: Hepatic Nrf2 pathway gene expression (qPCR); format: in vivo; conditions: rat liver, qPCR relative to β-actin, Cd vs control, AEO + CdCl2 vs CdCl2 group
Protocol: as §1, with “Twenty-four hours after the last treatment, the animals were killed and the liver was quickly removed and weighed.” left out
Gene expression for the Nrf2 pathway, including nuclear factor erythroid 2-related factor 2 (Nrf2), hemeoxygenase-1 (HO-1), NAD(P)H: quinone oxidoreductase 1 (NQO1) and Nuclear factor kappa B (NFκB) were quantified via real-time PCR (qPCR) consuming the primers' sequences, shown in Table 1, in agreement with the method described elsewhere. Briefly, RNA was isolated and purified using a Trizol reagent kit (Invitrogen, Carlsbad, CA, USA), then a reverse transcription polymerase chain reaction (RT-PCR) kit (TaKaRa, Kusatsu, Shiga, Japan) following the manufacturer's procedures. qPCR was applied using a SYBR ExScript RT-PCR kit, and quantification examinations were accomplished via an Opticon-2 Real-4 time PCR reactor (MJ Research, Capital Court, Reno, NV, USA). qPCR results were obtained using Step PE Applied Biosystems (Waltham, MA, USA) software. Relative gene expression data were calculated as mentioned earlier by the Livak and Schmittgen method (2-ΔΔCq2) and presented as a fold change. Target gene expressions were assessed and related to the reference gene (β-actin).

NFκB = test: Hepatic NFκB gene expression (qPCR); format: in vivo; conditions: rat liver, qPCR relative to β-actin; Cd vs control; AEO with Cd vs Cd alone group; FIG. 3D
Protocol: To study the hepatic protective activity of Achillea millefolium essential oil (AEO) on CdCl2-induced hepatic toxicity, male Wistar rats (weighing, 180 g-200 g) were purchased from the Experimental Animal Research Centre, King Saud University, Riyadh, KSA. The animals were randomly divided into four groups (n=8 per group). For Group I (the Control group), the animals were pre-administered with 0.9% NaCl (physiological saline), 2 hours before the injection of 0.9% NaCl (physiological saline) i.p., daily for 7 days. For Group II (the CdCl2 group), the animals were pre-administered with 0.9% NaCl (physiological saline) 2 hours before injection of 6.5 mg/kg CdCl2 i.p. daily for 7 days. […]
Gene expression for the Nrf2 pathway, including nuclear factor erythroid 2-related factor 2 (Nrf2), hemeoxygenase-1 (HO-1), NAD(P)H: quinone oxidoreductase 1 (NQO1) and Nuclear factor kappa B (NFκB) were quantified via real-time PCR (qPCR) consuming the primers' sequences, shown in Table 1, in agreement with the method described elsewhere. […] Relative gene expression data were calculated as mentioned earlier by the Livak and Schmittgen method (2-ΔΔCq2) and presented as a fold change. Target gene expressions were assessed and related to the reference gene (β-actin).

[5] = system: CdCl2-induced hepatic toxicity; test: Determination of liver inflammatory markers; format: in vivo, rat; conditions: rats, CdCl2 vs control, AEO 250 mg/kg + CdCl2 vs CdCl2 group
Protocol: as §1, §2
Inflammation markers including tumor necrosis factor alpha (TNF-α), interleukin 1β (IL-1β), intracellular adhesion molecule-1 (ICAM-1) and myeloperoxidase (MPO) were measured according to the manufacturer protocol of the Kit.

[Cl][Cd][Cl] [CdCl2]
Final weight [1]: 190.84 ± 4.41
Cd concentration (μg/g liver tissue) ([2]; male Wistar rats, AEO 250 mg/kg 2 hours before saline or CdCl2 6.5 mg/kg i.p., daily for 7 days, liver 24 h after last treatment, mean ± SD): 0.74 ± 0.023 μg/g liver tissue
Concentration of Cd in hepatic tissue (change) ([2]; rats, CdCl2 vs control group, AEO prior to CdCl2 vs CdCl2 group, p<0.05): significantly increased
serum ALT level ([3]; FIG. 1A): increase
serum AST level ([3]; FIG. 1B): increase
serum ALP level ([3]; FIG. 1C): increase
serum LDH level ([3]; FIG. 1D): increase
serum γGTT1 level ([3]; FIG. 1E): increase
hepatic MDA level (lipid peroxidation) ([4]; FIG. 2A): augmented
hepatic GSH-Px activity ([4]; FIG. 2B): considerably declined
hepatic GSH-R activity ([4]; FIG. 2C): considerably declined
hepatic SOD activity ([4]; FIG. 2D): considerably declined
hepatic CAT (catalase) activity ([4]; FIG. 2E): considerably declined
Nrf2 mRNA expression level (Nrf2/HO-1/NQO1; FIG. 3A): decreased
HO-1 mRNA expression level (Nrf2/HO-1/NQO1; FIG. 3B): decreased
NQO1 mRNA expression level (Nrf2/HO-1/NQO1; FIG. 3C): decreased
NFκB mRNA expression level (NFκB): significantly augmented
TNF-α hepatic level ([5]; FIG. 4A): augmented
IL-1β hepatic level ([5]; FIG. 4B): augmented
MPO hepatic level ([5]; FIG. 4C): augmented
ICAM-1 hepatic level ([5]; FIG. 4D): augmented
